Reference: patent US20070014757A1, “Compositions and complexes containing a macromolecular compound as potential anti-inflammatory agents” (COUNCIL OF SCIENTIFIC AND INDUSTRIAL RESEARCH, priority 2002, published 2007)
Read-outs that look alike come from different tables or passages of the source. Values belong to the compound of their own block, whether it stands above or below them.

Tests used:
[1] = tested on: cotton pellet granuloma in rats; experiment: Cotton pellet test in rats (sub-acute model); assay type: in vivo; conditions: granuloma dry weight vs control, dosed once a day, day 1 to 7; I 1.4 mg/kg, D 12 mg/kg, DI 1.4 mg/kg I + 12 mg/kg D
Protocol: Cotton pellet test in rats: Four autoclaved pellets of cotton weighing 10 mg±0.5 mg were implanted on the previously shaved groin and axilla (two cotton pellet in each) region of rats aseptically. The test formulations (D,I and DI) were fed once a day from 1 to 7 of the experiment. On the day 8 th, the rats were etherized by an overdose of ether and the pellets surrounded by granuloma tissue wre dissected out carefully and dried in a hot oven at 60° C. till a constant weight was obtained. Ulcers were not found in any of the case. After dissection various organs were removed, washed, dried and weighed and histopathology was carried out. No abnormalities were found after conducting the histopathology of liver, lung, kidney and spleen.
The subcutaneous implantation of cotton pellets provides inflammatory exudates that are easily processed. Implantation of cotton pellet triggers the series of cascade inflammatory reaction, leads to the migration of mediators of the inflammation in the zone of implantation.

[2] = tested on: Adjuvant-induced arthritis in rats; experiment: Adjuvant-induced arthritis in rats (chronic model); assay type: in vivo; conditions: foot swelling, daily dosing I 1 mg/kg, D 9 mg/kg, DI 1 mg/kg I + 9 mg/kg D
Description: Rats were sacrificed. After dissection various organs were removed, washed, dried and weighed. Ulcers were not observed in any of the cases.
The body weight and feed intake of rats were monitored regularly. Weight gain has also been used as a parameter for assessing drug effectiveness.

[3] = Phase solubility study of indomethacin in aqueous dendrimer solutions; assay type: physicochemical; conditions: indomethacin with PAMAM (fourth generation), 25° C.
Protocol: Solubility studies were carried out as described by Higuchi and Connors with minor modifications.
Solubility phase diagram depicts the AN type of curve (FIG. 2), which represent a decreasing dependence on the ligand added at higher concentration. This type is comparatively least frequently encountered system, and its occurrence may be explained on the basis of self-association of the ligand at high concentration, which is in contrast to the curve reported by Emanuele et al, for dendrimer using ibuprofen. The negative slope in the curve may be due to the aggregation of dendrimer with the increasing concentration.

[4] = Comparative behavior of dendrimer and indomethacin at different pH (solubility); assay type: physicochemical
Protocol: To study the comparative behavior of dendrimer and indometacin at different pH two possibilities were tried. […] The pH of the aqueous solutions of dendrimer was adjusted using 0.1 N HCl and 1M NaOH. […] To the aqueous solutions of various pH (pH-2, 4 7, 8 and 10), dendrimer was added at different percentage. (0.075, 0.15, 0.2). pH was measured in each case. […] The amines of dendrimer will show maximum ionization at acidic pH and minimum ionization at basic pH. […] (initial pH).

[5] = Hematological parameters in arthritic rats (blood cell counter)
Protocol: (§1) Hematological parameters were determined by blood cell counter (Medonic CA 620).

[6] = rat, in vivo
Protocol: as §1

- type of phase solubility profile [3]: AN type of solubility profile
- solubility of indomethacin on addition of dendrimer (in words) ([4]; case-A: filtered saturated solution of indomethacin): found to be decrease
- solubility of indomethacin on addition of dendrimer (in words) ([4]; case-B: suspension with un-dissolved drug, dendrimer 0.075%, 0.15%, 0.2%): further increased
- Haematocrit [5]: 30.3%
- Hemoglobin concentration [5]: 11.6 gm/dl
- Large platelets [5]: 8.05%
- Mean Platelet Cell Volume [5]: 6.55 um^3
- Mean cell hemoglobin [5]: 19.9 pg
- Mean cell hemoglobin concentration [5]: 38.2 g/dL
- Mean cell volume for red blood cell [5]: 52 um^3
- Packed platelet volume [5]: 0.51%
- Platelet distribution width [5]: 8.63 um^3
- Platelets [5]: 778 10^3\mm^3
- Red blood cell [5]: 5.87 10^6/mm^3
- Red cell distribution width [5]: 18.9%
- Red cell distribution width absolute [5]: 44.1 um^3
- White blood cells [5]: 8.85 10^3/mm^3
Compound: COc1ccc2c(c1)c(CC(=O)O)c(C)n2C(=O)c1ccc(Cl)cc1 [I, Indomethacin]
- Mean Percentage Inhibition ± SE [1]: 22 ± 1.2%
- Mean Percentage Inhibition ± SE ([2]; +1 day): 17 ± 0.9%
- Mean Percentage Inhibition ± SE ([2]; +3 day): 18 ± 0.7%
- Mean Percentage Inhibition ± SE ([2]; +5 day): 9 ± 0.6%
- Mean Percentage Inhibition ± SE ([2]; +7 day): 9 ± 0.8%
- Mean Percentage Inhibition ± SE ([2]; +10 day): 8 ± 0.6%
- Mean Percentage Inhibition ± SE ([2]; +12 day): 10 ± 0.9%
- Mean Percentage Inhibition ± SE ([2]; +14 day): 11 ± 0.9%

- Haematocrit [6]: 37.3%
- Hemoglobin concentration [6]: 11.3 gm/dl
- Large platelets [6]: 7.75%
- Mean Platelet Cell Volume [6]: 6.5 um^3
- Mean cell hemoglobin [6]: 18.9 pg
- Mean cell hemoglobin concentration [6]: 38 g/dL
- Mean cell volume for red blood cell [6]: 49.7 um^3
- Packed platelet volume [6]: 0.45%
- Platelet distribution width [6]: 8.6 um^3
- Platelets [6]: 700 10^3\mm^3
- Red blood cell [6]: 6 10^6/mm^3
- Red cell distribution width [6]: 14.9%
- Red cell distribution width absolute [6]: 36.3 um^3
- White blood cells [6]: 8.78 10^3/mm^3
Compound: NH2 terminated PAMAM dendrimer (EDA core) generation 4
